The results in this text go back to patent publication US8563472B2 (priority 2010, dated 2013).

System in one series: not given
Assay: not given
Conditions: not given
For `CN1CCCCC1C(=O)N/N=C/c1cc(Cl)cc(Cl)c1O` (stereo not shown) [Compound 54, 1-methyl-piperidine-2-carboxylic acid [1-(3,5-dichloro-2-hydroxy-phenyl)-methylidene]-hydrazide], the melting point lay within 107 to 110 °C.

In turn, `Cc1cc(C(=O)N/N=C/c2cc(Br)cc(Br)c2O)cs1` [Compound 32] registered a melting point of 203 to 205 °C.

Consider `Cc1nn(-c2ccccc2)nc1C(=O)N/N=C/c1ccccc1O` [Compound 21], for which the melting point was 231 to 233 °C.

`C/C(=N\NC(=O)c1ccoc1C)c1cc(Br)cc(Br)c1O` [Compound 52] gave a melting point of 201 to 204 °C.

`C/C(=N\NC(=O)c1ccc(Cl)s1)c1ccccc1O` [Compound 38] showed a melting point of 204 to 205 °C.

Turning to `C/C(=N\NC(=O)c1sc(C)nc1C)c1cc(Br)cc(Br)c1O` [Compound 49], the melting point fell in the range of 221 to 223 °C.

Molecule `C/C(=N\NC(=O)c1csc(C)c1)c1cc(Br)cc(Br)c1O` [Compound 51] came in with a melting point of 237 to 239 °C.

`C/C(=N\NC(=O)c1cn(-c2ccccc2)nc1O)c1cc(Cl)cc(Cl)c1O` [Compound 42] gave a melting point of 269 to 271 °C.

`C/C(=N\NC(=O)c1ccoc1C)c1cc(Cl)cc(Cl)c1O` [Compound 46] had a melting point of 212 to 215 °C.

For `Cc1nc(C)c(C(=O)N/N=C/c2cc(Cl)cc(Cl)c2O)s1` [Compound 25], the melting point lay in the range of 217 to 219 °C.

Regarding `CCn1nc(C)cc1C(=O)N/N=C/c1cc(Cl)cc(Cl)c1O` [Compound 16], the melting point lay within 221 to 222 °C.

On to `C/C(=N\NC(=O)c1sc(C)nc1C)c1ccccc1O` [Compound 37], for which the melting point was in the range of 202 to 204 °C.

The molecule `O=C(N/N=C/c1ccccc1O)c1ccc(Cl)s1` [Compound 23] had a melting point of 228 to 230 °C.

For the molecule `Cc1cc(C(=O)N/N=C/c2cc(Cl)cc(Cl)c2O)cs1` [Compound 27], the melting point fell in the range of 189 to 191 °C.

In turn, `O=C(N/N=C/c1cc(Cl)cc(Cl)c1O)c1sc(C(F)(F)F)nc1C(F)(F)F` [Compound 12] had a melting point of 189 to 190 °C.

The molecule `C/C(=N\NC(=O)c1csc(C)c1)c1ccccc1O` [Compound 39] registered a melting point of 158 to 160 °C.

The next series has as its system Phytophthora infestans.
Assay: not given
To be noted: hydrazone 50 ppm with 50 μM CuCl2.2H2O, applied 24 h before inoculation, tomato plants, assessed 7 d after inoculation. The format is in vivo.
`CN1CCCCC1C(=O)N/N=C/c1cc(Cl)cc(Cl)c1O` (stereo not shown) [Compound 54, 1-methyl-piperidine-2-carboxylic acid [1-(3,5-dichloro-2-hydroxy-phenyl)-methylidene]-hydrazide] yielded a TLB % control of 22%.

`Cc1cc(C(=O)N/N=C/c2cc(Br)cc(Br)c2O)cs1` [Compound 32]: the TLB % control came out at 69%.

The molecule `Cc1nn(-c2ccccc2)nc1C(=O)N/N=C/c1ccccc1O` [Compound 21] displayed a TLB % control of 16%.

Molecule `C/C(=N\NC(=O)c1ccoc1C)c1cc(Br)cc(Br)c1O` [Compound 52] showed a TLB % control of 66%.

In turn, `C/C(=N\NC(=O)c1ccc(Cl)s1)c1ccccc1O` [Compound 38] returned a TLB % control of 56%.

`C/C(=N\NC(=O)c1sc(C)nc1C)c1cc(Br)cc(Br)c1O` [Compound 49] returned a TLB % control of 61%.

For `C/C(=N\NC(=O)c1csc(C)c1)c1cc(Br)cc(Br)c1O` [Compound 51], the TLB % control turned out to be 88%.

Turning to `C/C(=N\NC(=O)c1cn(-c2ccccc2)nc1O)c1cc(Cl)cc(Cl)c1O` [Compound 42], the TLB % control is given as 2%.

Take `C/C(=N\NC(=O)c1ccoc1C)c1cc(Cl)cc(Cl)c1O` [Compound 46]: the TLB % control came out at 69%.

`Cc1nc(C)c(C(=O)N/N=C/c2cc(Cl)cc(Cl)c2O)s1` [Compound 25]: the TLB % control was 71%.

The molecule `CCn1nc(C)cc1C(=O)N/N=C/c1cc(Cl)cc(Cl)c1O` [Compound 16] yielded a TLB % control of 39%.

Consider `C/C(=N\NC(=O)c1sc(C)nc1C)c1ccccc1O` [Compound 37], for which the TLB % control was determined as 81%.

With `O=C(N/N=C/c1ccccc1O)c1ccc(Cl)s1` [Compound 23], the TLB % control turned out to be 32%.

Molecule `Cc1cc(C(=O)N/N=C/c2cc(Cl)cc(Cl)c2O)cs1` [Compound 27] returned a TLB % control of 78%.

The molecule `O=C(N/N=C/c1cc(Cl)cc(Cl)c1O)c1sc(C(F)(F)F)nc1C(F)(F)F` [Compound 12] showed a TLB % control of 57%.

`C/C(=N\NC(=O)c1csc(C)c1)c1ccccc1O` [Compound 39] displayed a TLB % control of 66%.

Another series has as its system Leptosphaeria nodorum (LEPTNO). The series can be described thus: In vitro fungitoxicity assay against Leptosphaeria nodorum in copper-minus / copper-plus liquid medium. The format is cell-based. The following applies: Parastagonospora nodorum; test compound 0.05 μg/mL, copper-minus medium, 25° C., 72 h, growth by light scattering; read-out: LEPTNO % Inhn. Minus Copper Observed. The method, then: In vitro fungitoxicity assays against Leptosphaeria nodorum (LEPTNO) were conducted using the liquid growth medium described by Coursen and Sisler (American Journal of Botany 1960, 47, 541-549) except that copper micronutrient, normally included as CuSO4, was omitted. The medium, termed “copper-minus”, was prepared by dissolving 10 g glucose, 1.5 g K2HPO4, 2 g KH2PO4 and 1 g (NH4)2SO4 in 1 liter of deionized water and treating the solution with 0.5 g Chelex 100 resin (Bio-Rad Analytical grade, 50-100 mesh, sodium form, cat#142-2822) by stirring at room temperature for 1 h. MgSO4.7H2O (0.5 g) was added, and stirring was continued for a further hour. Trace elements (minus CuSO4), and vitamins described by Coursen and Sisler were added from concentrated stock solutions and the entire medium was sterilized by filtration. Medium containing copper was prepared by adding CuCl2.2H2O to the copper-minus medium at 20 μM. […] Copper-minus medium (100 μL) was added to one of the wells and copper-plus medium to the second well. Control wells, included for each medium, received 1 μL DMSO and 100 μL of medium.
LEPTNO was grown on potato dextrose agar in 9 cm diameter petri dishes for 7 days (d). Sterile deionized water (20 mL) was added to a culture plate and spores suspended by scraping the surface gently with a sterile plastic loop. The resulting suspension was filtered through a double layer of sterile cheesecloth. […] The spores were resuspended in copper-minus medium, and the suspension adjusted to 2×10^5 spores per mL. Microtiter plates were inoculated with 100 μL of this spore suspension and the plates incubated at 25° C. for 72 h before assessing fungal growth by measuring light scattering in a NepheloStar plate reader. Growth inhibition was determined by comparing growth in the presence of test compound with growth in control wells lacking test compound.
Regarding `CN1CCCCC1C(=O)N/N=C/c1cc(Cl)cc(Cl)c1O` (stereo not shown) [Compound 54, 1-methyl-piperidine-2-carboxylic acid [1-(3,5-dichloro-2-hydroxy-phenyl)-methylidene]-hydrazide], the inhibition of growth at 0.05 µg/mL is 0%.

Take `Cc1cc(C(=O)N/N=C/c2cc(Br)cc(Br)c2O)cs1` [Compound 32]: the inhibition of growth at 0.05 µg/mL came out at 0%.

For the molecule `Cc1nn(-c2ccccc2)nc1C(=O)N/N=C/c1ccccc1O` [Compound 21], the inhibition of growth at 0.05 µg/mL worked out at 0%.

In the case of `C/C(=N\NC(=O)c1ccoc1C)c1cc(Br)cc(Br)c1O` [Compound 52], the inhibition of growth at 0.05 µg/mL stood at 0%.

Take `C/C(=N\NC(=O)c1ccc(Cl)s1)c1ccccc1O` [Compound 38]: the inhibition of growth at 0.05 µg/mL came to 0%.

In the case of `C/C(=N\NC(=O)c1sc(C)nc1C)c1cc(Br)cc(Br)c1O` [Compound 49], the inhibition of growth at 0.05 µg/mL was 2.6%.

For `C/C(=N\NC(=O)c1csc(C)c1)c1cc(Br)cc(Br)c1O` [Compound 51], the inhibition of growth at 0.05 µg/mL turned out to be 2.2%.

Turning to `C/C(=N\NC(=O)c1cn(-c2ccccc2)nc1O)c1cc(Cl)cc(Cl)c1O` [Compound 42], the inhibition of growth at 0.05 µg/mL is 3.5%.

As to `C/C(=N\NC(=O)c1ccoc1C)c1cc(Cl)cc(Cl)c1O` [Compound 46], the inhibition of growth at 0.05 µg/mL worked out at 0%.

`Cc1nc(C)c(C(=O)N/N=C/c2cc(Cl)cc(Cl)c2O)s1` [Compound 25]: the inhibition of growth at 0.05 µg/mL worked out at 0%.

In the case of `CCn1nc(C)cc1C(=O)N/N=C/c1cc(Cl)cc(Cl)c1O` [Compound 16], the inhibition of growth at 0.05 µg/mL turned out to be 3.5%.

Take `C/C(=N\NC(=O)c1sc(C)nc1C)c1ccccc1O` [Compound 37]: the inhibition of growth at 0.05 µg/mL worked out at 0%.

On to `O=C(N/N=C/c1ccccc1O)c1ccc(Cl)s1` [Compound 23], for which the inhibition of growth at 0.05 µg/mL stood at 0%.

As for `Cc1cc(C(=O)N/N=C/c2cc(Cl)cc(Cl)c2O)cs1` [Compound 27], the inhibition of growth at 0.05 µg/mL amounted to 5.4%.

With `O=C(N/N=C/c1cc(Cl)cc(Cl)c1O)c1sc(C(F)(F)F)nc1C(F)(F)F` [Compound 12], the inhibition of growth at 0.05 µg/mL is 49.8%.

On to `C/C(=N\NC(=O)c1csc(C)c1)c1ccccc1O` [Compound 39], for which the inhibition of growth at 0.05 µg/mL came to 0%.

The same series, now with this note: test compound 0.05 μg/mL, copper-plus medium (CuCl2.2H2O), 25° C., 72 h.
Regarding `CN1CCCCC1C(=O)N/N=C/c1cc(Cl)cc(Cl)c1O` (stereo not shown) [Compound 54, 1-methyl-piperidine-2-carboxylic acid [1-(3,5-dichloro-2-hydroxy-phenyl)-methylidene]-hydrazide], the “LEPTNO % Inhn. Plus Copper Observed” value is recorded as 91%.

With `Cc1cc(C(=O)N/N=C/c2cc(Br)cc(Br)c2O)cs1` [Compound 32], the “LEPTNO % Inhn. Plus Copper Observed” value is reported as 97.6%.

Take `Cc1nn(-c2ccccc2)nc1C(=O)N/N=C/c1ccccc1O` [Compound 21]: the “LEPTNO % Inhn. Plus Copper Observed” value turned out to be 93.9%.

As for `C/C(=N\NC(=O)c1ccoc1C)c1cc(Br)cc(Br)c1O` [Compound 52], the “LEPTNO % Inhn. Plus Copper Observed” value is given as 97.7%.

Regarding `C/C(=N\NC(=O)c1ccc(Cl)s1)c1ccccc1O` [Compound 38], the “LEPTNO % Inhn. Plus Copper Observed” value worked out at 98%.

As for `C/C(=N\NC(=O)c1sc(C)nc1C)c1cc(Br)cc(Br)c1O` [Compound 49], the “LEPTNO % Inhn. Plus Copper Observed” value stood at 89.1%.

With `C/C(=N\NC(=O)c1csc(C)c1)c1cc(Br)cc(Br)c1O` [Compound 51], the “LEPTNO % Inhn. Plus Copper Observed” value is reported as 98%.

For the molecule `C/C(=N\NC(=O)c1cn(-c2ccccc2)nc1O)c1cc(Cl)cc(Cl)c1O` [Compound 42], the “LEPTNO % Inhn. Plus Copper Observed” value is given as 91.2%.

With `C/C(=N\NC(=O)c1ccoc1C)c1cc(Cl)cc(Cl)c1O` [Compound 46], the “LEPTNO % Inhn. Plus Copper Observed” value worked out at 97.2%.

`Cc1nc(C)c(C(=O)N/N=C/c2cc(Cl)cc(Cl)c2O)s1` [Compound 25]: the “LEPTNO % Inhn. Plus Copper Observed” value was 81.9%.

Take `CCn1nc(C)cc1C(=O)N/N=C/c1cc(Cl)cc(Cl)c1O` [Compound 16]: the “LEPTNO % Inhn. Plus Copper Observed” value stood at 88%.

Consider `C/C(=N\NC(=O)c1sc(C)nc1C)c1ccccc1O` [Compound 37], for which the “LEPTNO % Inhn. Plus Copper Observed” value is listed as 94.2%.

Consider `O=C(N/N=C/c1ccccc1O)c1ccc(Cl)s1` [Compound 23], for which the “LEPTNO % Inhn. Plus Copper Observed” value is recorded as 96.3%.

For the molecule `Cc1cc(C(=O)N/N=C/c2cc(Cl)cc(Cl)c2O)cs1` [Compound 27], the “LEPTNO % Inhn. Plus Copper Observed” value stood at 97.3%.

With `O=C(N/N=C/c1cc(Cl)cc(Cl)c1O)c1sc(C(F)(F)F)nc1C(F)(F)F` [Compound 12], the “LEPTNO % Inhn. Plus Copper Observed” value was found to be 94.7%.

For `C/C(=N\NC(=O)c1csc(C)c1)c1ccccc1O` [Compound 39], the “LEPTNO % Inhn. Plus Copper Observed” value stood at 97.3%.
